Experimental data as given in patent publication US9210928B2, “Plant development control composition” (Syngenta Crop Protection, LLC, priority 2008, dated 2015).
“Also recorded” adds a separate entry of the source.

Experiments:
LeCCD1a = LeCCD1a (Solanum lycopersicum, UniProt Q6E4P5); assay: In vitro LeCCD1a enzyme assay (recombinant cell-free extract, colourimetric, apo-8′-carotenal substrate); assay type: biochemical, tomato (Solanum lycopersicum); conditions: for inhibition at 100 µM: read-out: LeCCD1a (9,10/9′,10′) Inhibition @ 100 μM (%); for IC50: E. coli cell extract with recombinant CCD, read-out: LeCCD1a (9,10/9′,10′) IC50
Description: In vitro LeCCD1a enzyme assay—We over-expressed LeCCD1a in E. coli, as a GST-fusion protein (supplemental methods). The in vitro assay of LeCCD1a was based on reported methods (37), and was carried out in a 200 μl total volume in a 96-well microtitre plate, with the signal detected at 485 nm. To prepare substrate solution for each assay, 5 μl of 4% (w/v in ethanol) apo-8′-carotenal (Sigma) was mixed with 25 μl of 4% (w/v in ethanol) β-octylglucoside (Sigma), the ethanol was then evaporated under nitrogen, and the residue dissolved in 150 μl PBS buffer containing 10 mM sodium ascorbate by incubation at 20° C. for 30 min. 50 μl of cell-free extract containing recombinant LeCCD1a was added, and the reactions monitored over 30 min at 20° C.
(§1) For the production of cell-free extracts of LeCCD1a and LeNCED1, cultures were grown to an OD of 0.6 at 37° C., then isopropyl β-D-1-thiogalactopyranoside (IPTG) was added to 0.2 mM and the cultures grown overnight at 20° C. The cells (200 ml cultures) were harvested by centrifugation (5000 rpm, 10 min) and the pellet re-suspended in 4 ml PBS, 0.1% Triton-X 100. Lysozyme was added to a final concentration of 25 μg ml^−1 and the solution incubated at room temperature for 15 min before sonication (3×30 s at 18Ω) on ice. The lysate was then centrifuged (13000 rpm, 15 min, 4° C.) and the supernatant used for the assay.
(§2) Specificity of inhibition in vitro for tomato genes LeNCED1 and LeCCD1a—In order to screen the inhibitors against enzymes which cleave carotenoids at the 9,10 position, we used the recombinant tomato LeCCD1a protein (44), because this type of enzyme can be studied using an in vitro colourimetric assay with β-apo-8′-carotenal as substrate (37). To establish the specificity of the inhibitors, they were also tested against the tomato LeNCED1 recombinant protein which cleaves 9-cis carotenoids at the 11,12 position (45). For this enzyme, the cleavage reaction was monitored by C18 reverse phase HPLC, using 9′-cis-neoxanthin as substrate.

SP12 tomato seeds = assay: Germination assay, SP12 tomato seed over-expressing LeNCED1; assay type: in vivo, Solanum lycopersicum; conditions: for stimulation of germination of SP12 seeds: compounds D1 to D7 tested, 1% DMSO
Text: (§3) Seeds used were “wild-type” tomato (Solanum lycopersicum cv. Ailsa craig near-isogenic line containing the Tm2^a tobacco mosaic virus resistance gene). In addition, we used transgenic tomato seed (Solanum lycopersicum cv. Ailsa craig) transformed with a construct designed to over-express the gene LeNCED1, encoding 9-cis-epoxycarotenoid dioxygenase. These transgenic seeds are known as D9 [Thompson, A. J., et al., Ectopic expression of a tomato 9-cis-epoxycarotenoid dioxygenase gene causes over-production of abscisic acid. Plant Journal, 2000. 23(3): p. […]], but were later renamed as SP12 [Thompson, A. J., et al., Regulation and manipulation of ABA biosynthesis in roots. Plant Cell and Environment, 2007. 30: p. […] Plant Journal, 2000. 23(3): p. 363-74.5].
(§4) Each assay consisted of a 10 cm vented Petri dish containing an 8.5 cm diameter circle of Whatman Grade 1 filter paper (Whatman International Ltd, Maidstone, England) soaked in 1 ml of test solution. Seeds were surface sterilized with 30% household bleach for 30 mins, rinsed in distilled water, and then 20 seeds were placed on the filter paper in each Petri dish. The Petri dishes were incubated at high relative humidity (>95%) at 25° C. in the dark. Seed germination, defined as visible emergence of the radicle, was scored daily. Replicate plates were used for each chemical treatment.
Hydroxamic acids were dissolved in dimethylsulphoxide (DMSO), and aqueous test solutions were prepared such that the final concentration of DMSO was 1% v/v. Control solution consisted of 1% v/v DMSO in water. Norflurazon was prepared as a stock solution at 20 mg ml^−1 in ethanol, and then diluted with water to a final concentration of 5 mg l^−1, with ethanol present at 0.025% v/v.
Transgenic SP12 tomato seeds we created by the inventors; these seeds have high levels of ABA and increased dormancy [Thompson, A. J., et al., Ectopic expression of a tomato 9-cis-epoxycarotenoid dioxygenase gene causes over-production of abscisic acid. Plant Journal, 2000. 23(3): p. 363-74 and Thompson, A. J., et al., Regulation and manipulation of ABA biosynthesis in roots. Plant Cell and Environment, 2007. 30: p. 67-78].

LeNCED1 = biological target: T1, LeNCED1 (Solanum lycopersicum, UniProt O24023); assay: In vitro NCED enzyme assay (recombinant LeNCED1 cell-free extract, HPLC, 9′-cis-neoxanthin substrate); assay type: biochemical, tomato
T1 construct: made in house; host or cells: E. coli Rosetta (DE3); crude cell-free extract
Description: In vitro NCED enzyme assay—We over-expressed LeNCED1 in E. coli, as an N-terminal His6-fusion protein (supplemental methods). Cell-free extract containing recombinant LeNCED1 was prepared in 100 mM bis-tris buffer (pH 6.7). 15 μl extract was pre-activated by addition of iron(II) sulphate (20 mM, 1 μl) and ascorbic acid (20 mM, 1 μl) on ice for 2 min, prior to use. This aliquot of enzyme was then added to an assay (150 μl total volume) containing 100 mM bis-tris buffer (pH 6.7), 0.05% v/v Triton X-100, 1.0 mg/ml catalase, and 3 μg 9′-cis-neoxanthin. The 9′-cis-neoxanthin substrate was prepared as described in supplemental methods. The enzyme assay was incubated for 15 min in the dark at 20° C. Water (700 μl) was then added, and the products extracted with ethyl acetate (3×1 ml). The organic solvent was removed at reduced pressure, the residue was dissolved in methanol (200 μl), and then 100 μl was injected onto a Phenomenex C18 reverse phase HPLC column, and a gradient of 5-10% methanol in acetonitrile/0.05% triethylamine was applied at 0.5 ml/min over 20 min, detecting at 440 nm. NCED inhibition assays contained 1-100 μM inhibitor; inhibition was calculated from the product formation after 15 min, compared to a control assay with no inhibitor present.
as §1, §2

whole Arabidopsis plants = assay: Shoot branching in whole Arabidopsis plants grown in agar; assay type: in vivo; conditions: for unintended effects on whole Arabidopsis plants: applied to whole plants; for branching phenotype of whole plants (in words): plants grown under sterile conditions in agar
Description: Branching phenotypes of Arabidopsis plants grown in agar media for 45 days supplemented with inhibitor D6. Images are shown: (a) Col-0 (WT) without inhibitor; (b) max3-9 mutant without inhibitor; (c) Col-0 with 100 μM D6. The numbers (d) of rosette branches were quantified. Error bars represent standard error of the mean, n=6 to 12.
Stimulation of shoot branching in whole Arabidopsis plants—Inhibitors were also applied to Arabidopsis whole plants grown under sterile conditions in agar. […] Inhibitor treated plants were intermediate (mean of approximately 2 branches) and so partially mimicked max3-9 (FIG. 6d).

[1] = tested on: excised Arabidopsis nodes; assay: Axillary bud outgrowth assay in Arabidopsis stem sections; assay type: in vivo; conditions: 100 μM inhibitor, 1 μM NAA; Col-0
Description: Axillary bud outgrowth assay in Arabidopsis stein sections—The assays were performed essentially as described (40) with the following modifications. Small Petri dishes (50 mm diameter, 20 mm depth) were filled with 10 ml of ATS (39) supplemented with 1% agar and 1% sucrose. Inhibitors and α-naphthalene acetic acid (NAA) were added to the agar before pouring to give 100 μM and 1 μM, respectively. Thus, when the central strip was cut out of the agar, both the apical and basal media contained both NAA and inhibitor. Any nodes in which the apical end had curled out of the media or which bud length was less than 2 mm at the end of the experiment were discounted. Measurement of the shoot length was performed every 24 hours. For each assay a logistic curve was fitted using Genstat (10th edition, VSN international) with the fitcurve directive and the lag phase was calculated by extrapolating the linear part of the curve and the initial plateau (see supplementary methods). The x value of where these two lines intersected represented the lag phase.
A logistic curve, y=A+C/(1+e^−B(t−m)), was fitted to the data for each shoot using GenStat (10th edition). The lag phase was then calculated using the equation m−(2/B) which effectively gave the t value (time) of the intercept of the two extrapolated lines from the linear part of the curve and the initial plateau.
Stimulation of shoot branching in Arabidopsis stem sections by application of inhibitor—Auxin inhibits the outgrowth of axillary buds in wild-type Arabidopsis plants. In the AtCCD7 and AtCCD8 null mutants (max3 and max4, respectively) the response to auxin is reduced, presumably due to a block in formation of an apocarotenoid hormone (recently shown (17,18) to be strigolactone or a related compound) that suppresses branching (19), and axillary buds extend earlier, leading to formation of side branches. An in vitro assay was previously developed in which the growth of axillary buds from isolated sections of Arabidopsis stem was used to assess max mutants (40). […]

[2] = tested on: wild-type tomato seeds (cv. Ailsa Craig); assay: Germination assay, wild-type tomato seed; assay type: in vivo, Solanum lycopersicum; conditions: dose-dependent; FIG. 9
Text: as §3
as §4, with “treatment. […]” for “treatment.”

[3] = tested on: abscisic acid production in planta; conditions: 50-100 μM concentration; cited from earlier work
recombinant NCED = conditions: read-out: Ki, reversible competitive inhibitor of recombinant NCED; cited from earlier work
AtNCED3 = AtNCED3 (Arabidopsis thaliana, UniProt Q9LRR7); conditions: 100 μM; cited from earlier work
AtCCD1 = AtCCD1 (Arabidopsis thaliana, UniProt O65572); conditions: 100 μM; cited from earlier work
Chain of AtCCD1 (O65572 whole entry): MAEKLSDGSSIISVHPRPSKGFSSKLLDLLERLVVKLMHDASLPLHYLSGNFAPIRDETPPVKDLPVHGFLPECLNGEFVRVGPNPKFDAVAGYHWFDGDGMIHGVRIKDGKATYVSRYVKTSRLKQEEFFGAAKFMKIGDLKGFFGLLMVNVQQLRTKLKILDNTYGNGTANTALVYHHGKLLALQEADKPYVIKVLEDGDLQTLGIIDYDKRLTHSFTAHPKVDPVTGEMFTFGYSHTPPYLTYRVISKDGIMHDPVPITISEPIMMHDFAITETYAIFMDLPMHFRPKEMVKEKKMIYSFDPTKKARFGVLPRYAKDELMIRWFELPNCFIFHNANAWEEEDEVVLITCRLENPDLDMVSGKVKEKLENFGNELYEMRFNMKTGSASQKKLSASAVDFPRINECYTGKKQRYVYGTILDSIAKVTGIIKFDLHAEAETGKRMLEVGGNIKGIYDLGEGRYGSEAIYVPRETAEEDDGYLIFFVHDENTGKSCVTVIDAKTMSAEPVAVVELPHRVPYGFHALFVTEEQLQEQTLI

Chain of LeCCD1a (Q6E4P5 1-545): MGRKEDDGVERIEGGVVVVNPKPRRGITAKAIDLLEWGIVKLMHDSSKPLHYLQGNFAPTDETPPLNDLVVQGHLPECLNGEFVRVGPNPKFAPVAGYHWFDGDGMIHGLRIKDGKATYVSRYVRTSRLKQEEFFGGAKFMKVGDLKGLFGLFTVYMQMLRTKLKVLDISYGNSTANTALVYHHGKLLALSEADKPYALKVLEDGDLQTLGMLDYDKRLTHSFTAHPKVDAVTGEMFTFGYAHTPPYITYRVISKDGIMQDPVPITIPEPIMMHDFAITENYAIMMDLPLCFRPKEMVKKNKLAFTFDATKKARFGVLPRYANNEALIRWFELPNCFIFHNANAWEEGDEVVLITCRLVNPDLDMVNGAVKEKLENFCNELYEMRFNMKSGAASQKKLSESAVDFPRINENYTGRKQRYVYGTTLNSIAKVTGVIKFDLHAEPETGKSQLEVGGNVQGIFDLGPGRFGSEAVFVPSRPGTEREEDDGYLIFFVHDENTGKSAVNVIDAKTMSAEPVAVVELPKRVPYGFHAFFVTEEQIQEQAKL
T1 sequence (O24023 17-605): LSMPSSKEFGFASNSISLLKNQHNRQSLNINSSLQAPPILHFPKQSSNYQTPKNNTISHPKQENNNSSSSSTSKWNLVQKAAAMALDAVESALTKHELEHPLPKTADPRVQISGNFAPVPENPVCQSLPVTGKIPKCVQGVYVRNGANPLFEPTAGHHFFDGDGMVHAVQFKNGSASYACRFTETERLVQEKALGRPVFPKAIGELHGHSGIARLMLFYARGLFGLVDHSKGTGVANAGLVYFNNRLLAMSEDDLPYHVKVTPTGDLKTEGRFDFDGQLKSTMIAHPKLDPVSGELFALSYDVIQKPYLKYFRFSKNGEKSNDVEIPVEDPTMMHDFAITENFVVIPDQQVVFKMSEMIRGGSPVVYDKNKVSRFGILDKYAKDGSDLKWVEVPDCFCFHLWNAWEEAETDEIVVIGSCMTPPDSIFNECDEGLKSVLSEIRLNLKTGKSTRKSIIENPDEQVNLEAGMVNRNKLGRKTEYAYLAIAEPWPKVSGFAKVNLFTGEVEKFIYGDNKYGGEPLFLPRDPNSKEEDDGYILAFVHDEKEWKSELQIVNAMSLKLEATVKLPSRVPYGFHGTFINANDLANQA
Chain of AtNCED3 (Q9LRR7 41-599): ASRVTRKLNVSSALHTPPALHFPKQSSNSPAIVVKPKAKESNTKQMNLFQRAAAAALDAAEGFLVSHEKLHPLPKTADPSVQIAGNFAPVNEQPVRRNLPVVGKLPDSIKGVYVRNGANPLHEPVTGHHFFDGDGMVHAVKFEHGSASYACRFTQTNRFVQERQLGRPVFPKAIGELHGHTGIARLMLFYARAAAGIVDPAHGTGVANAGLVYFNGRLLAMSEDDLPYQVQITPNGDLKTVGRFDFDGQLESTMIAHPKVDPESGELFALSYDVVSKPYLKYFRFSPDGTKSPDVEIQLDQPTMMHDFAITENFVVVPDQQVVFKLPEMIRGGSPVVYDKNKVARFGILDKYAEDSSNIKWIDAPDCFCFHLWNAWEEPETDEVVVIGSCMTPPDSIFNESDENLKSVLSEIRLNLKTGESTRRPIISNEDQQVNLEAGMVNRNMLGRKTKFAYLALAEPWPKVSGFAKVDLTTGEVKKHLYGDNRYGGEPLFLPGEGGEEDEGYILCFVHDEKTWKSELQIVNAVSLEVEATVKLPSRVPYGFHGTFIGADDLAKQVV

Compound	inhibition at 100 µM (LeCCD1a)	stimulation of germination of SP12 seeds (SP12 tomato seeds)	inhibition of LeNCED1 in vitro (in words) (LeNCED1)	IC50 (LeCCD1a)	unintended effects on whole Arabidopsis plants (whole Arabidopsis plants)	branching phenotype of whole plants (in words) (whole Arabidopsis plants)	Ki (recombinant NCED)	further results
O=C(Cc1ccc2c(c1)OCO2)N(O)Cc1ccc(F)cc1 [Compound D7, N-(4-fluorobenzyl)-3,4-methylenoxyphenylacetyl hydroxamic acid]	> 95%	most active compounds in stimulating germination	greatest inhibition of NCED in vitro					
O=C(Cc1ccc(O)cc1)N(O)Cc1ccccc1 [Compound D1, N-benzyl-4-hydroxyphenylacetyl hydroxamic acid]	> 95%			0.8 to 0.9 µM	grew normally	without an increase in branching		inhibition of LeCCD1 in vitro (in words) (LeCCD1a): good inhibitors of the 9,10 enzymes in vitro; advancement of the timing of bud outgrowth in wild-type [1]: one
COc1ccc(CC(=O)N(O)Cc2ccc(F)cc2)cc1 [Compound D4, N-(4-fluorobenzyl)-4-methoxyphenylacetyl hydroxamic acid]	> 95%	most active compounds in stimulating germination; also recorded: promoted germination of SP12 seeds	greatest inhibition of NCED in vitro		without negative unintended effects on whole plants	bushy appearance		germination of wild-type tomato seeds [2]: germination of these seeds was also promoted; plant development following application to seeds (SP12 tomato seeds; 2 mM): Some delay in development; plant development following application to wild-type or SP12 seeds (SP12 tomato seeds; concentrations <1 mM): Normal plant development
COC(=O)CN(C/C=C/c1ccc(OC)c(OC)c1)Cc1ccc(F)cc1 [Abamine, reference compound]				210 µM			39 µM	abscisic acid production in planta [3]: inhibited abscisic acid production in planta; LeNCED1 (11,12) Inhibition @ 100 μM (%) (LeNCED1; 100 μM inhibitor, E. coli cell extract with recombinant CCD): 20%
abamineSG							18.5 µM	inhibition of AtNCED3 (AtNCED3): 78%; inhibition of AtCCD1 (AtCCD1): ≤ 20%
